Assay results from paper PMC11434422 (2024).

Columns and labels:
[1] = tested on: c-MYC-G3 (c-MYC-G3-compDNA1 hybridized to anchorDNA1) (DNA, other) TGGGGAGGGTGGGGAATTTTTTTTTCGTGTATTGCTC; experiment: SPR, multi-cycle kinetics, 1:1 fit; settings: 150 mM Li+, 10 mM Ca2+; HBS-EP pH 7.4, 10 mM HEPES, 3 mM EDTA, 0.05% P20, 1% DMSO; hemin 10-100 µM
[2] = tested on: ssDNA (ssDNA-compDNA2 hybridized to anchorDNA2) (DNA, single strand) TGTGTAGTGCGGGTTTTTTTTTTGAGATGCAGATCCTGT; experiment: SPR, multi-cycle injections; settings: 150 mM Li+, 10 mM Ca2+; HBS-EP pH 7.4, 10 mM HEPES, 3 mM EDTA, 0.05% P20, 1% DMSO; hemin 10-100 µM; highest hemin 100 µM; legend: minimal binding

Q: Which results are given for `C=CC1=C(C)C2=Cc3c(C=C)c(C)c4[n]3[Fe]([Cl])[n]3c(c(C)c(CCC(=O)O)c3=CC3=NC(=C4)C(C)=C3CCC(=O)O)=CC1=N2`?
A: KD [1]: 263 ± 3 µM; binding [2]: no
